Results on seven compounds are retold here after ChEMBL document CHEMBL1133277, “Effect of C2/C3-endo unsaturation on the cytotoxicity and DNA-binding reactivity of pyrrolo[2,1-c][1,4]benzodiazepines” (2000).

Experiment [1] relates to CH1. The experiment can be described thus: In vitro cytotoxicity of compound was determined against CH1 (cisplatin resistant) cell lines at 37 degree C after 96 hr. Format: functional, Homo sapiens.
A further experiment relates to SK-OV-3. The experiment can be described thus: In vitro cytotoxicity of compound was determined against SKOV-3 cell lines at 37 degree C after 96 hr. Format: functional, Homo sapiens.
Experiment [2] has as its system Nucleic Acid. Put plainly: Change in temperature (thermal denaturation) was determined from calf thymus DNA at 37 degree Celsius for 0 hours. Format: functional. The conditions noted are these: Bos taurus.
Experiment [3] in a line: Resistance factor of compound was determined from cisplatin resistant CH1 cell lines to that of CH1 cell lines. Format: functional.
Experiment [4] is described as follows: Resistance factor of compound was determined from cisplatin resistant A2780 cell lines to that of A2780 cell lines. Format: functional.
Experiment [5] has as its system Nucleic Acid. Put plainly: Change in temperature (thermal denaturation) was determined from calf thymus DNA at 37 degree Celsius for 4 hours. Format: functional. The conditions noted are these: Bos taurus.
The test system of experiment [6] is Nucleic Acid. Put plainly: Change in temperature (thermal denaturation) was determined from calf thymus DNA at 37 degree Celsius for 36 hours. Particulars: Bos taurus. Format: functional.
The subject of experiment [7] is A2780. The experiment can be described thus: In vitro cytotoxicity of compound was determined against A2780 cell lines (cisplatin resistant) at 37 degree C after 96 hr. Format: functional, Homo sapiens.
The test system of experiment [8] is A2780. Put plainly: In vitro cytotoxicity of compound was determined against A2780 cell lines at 37 degree C after 96 hr. Format: functional, Homo sapiens.
Experiment [9] concerns CH1. The experiment can be described thus: In vitro cytotoxicity of compound was determined against CH1 cell lines at 37 degree C after 96 hr. Format: functional, Homo sapiens.
The subject of experiment [10] is Nucleic Acid. Put plainly: Change in temperature (thermal denaturation) was determined from calf thymus DNA at 37 degree Celsius for 18 hours. Particulars: Bos taurus. Format: functional.

For the compound `COC(=O)CC1=CN2C(=O)c3cc(OC)c(OC)cc3N=C[C@@H]2C1`, the Cytotoxicity was found to be 0.15 µM in the experiment with CH1 [1]; 0.45 µM in the experiment on SK-OV-3; 0.46 µM with A2780 [7]; 0.36 µM in the experiment with A2780 [8]; 0.115 µM with CH1 [9]. The ΔTm with Nucleic Acid [2] turned out to be 3.41 °C; in the experiment with Nucleic Acid [5], 4.63 °C; with Nucleic Acid [6] it was 6.65 °C. The Resistance factor in experiment [3] and in experiment [4] was 1.3 each time.

In the case of `COc1cc2c(cc1OCc1ccccc1)N=C[C@@H]1CCCN1C2=O`, the Cytotoxicity in the experiment with CH1 [1] stood at 0.145 µM; in the experiment on SK-OV-3, 0.46 µM; in the experiment on A2780 [7], 0.48 µM; in the experiment on A2780 [8], 0.17 µM; with CH1 [9] it was 0.145 µM. Also, the figures for the ΔTm in the experiment on Nucleic Acid [2], with Nucleic Acid [5] and in the experiment on Nucleic Acid [10] were 0.2 °C, 0.4 °C and 0.4 °C, respectively. Also, the Resistance factor in experiment [3] turned out to be 1; in experiment [4] it was 2.8.

For the compound `COC(=O)CC1=CN2C(=O)c3cc(OC)c(OCc4ccccc4)cc3N=C[C@@H]2C1`, the Cytotoxicity in the experiment with CH1 [1] came out at 0.04 µM; with SK-OV-3 it was 0.12 µM; in the experiment with A2780 [7], 0.12 µM; in the experiment on A2780 [8], 0.0145 µM; with CH1 [9], 0.016 µM. Besides, the ΔTm with Nucleic Acid [2] came out at 3.08 °C; in the experiment with Nucleic Acid [5] it was 3.96 °C; in the experiment on Nucleic Acid [6], 4.97 °C. For the same compound, the Resistance factor in experiment [3] came to 2.5; in [4] it was 8.3.

Turning to `COc1cc2c(cc1OCc1ccccc1)N=C[C@@H]1CC(CCO)=CN1C2=O`, the Cytotoxicity in the experiment with CH1 [1] is 0.037 µM; in the experiment on SK-OV-3, 0.105 µM; in the experiment with A2780 [7], 0.105 µM; in the experiment on A2780 [8], 0.07 µM; in the experiment with CH1 [9] it was 0.09 µM. The ΔTm in the experiment with Nucleic Acid [2] came to 3.98 °C; in the experiment with Nucleic Acid [5], 4.61 °C; in the experiment on Nucleic Acid [10] it was 5.6 °C. The Resistance factor in experiment [3] is 0.4; in experiment [4], 1.5.

With `COc1cc2c(cc1OCc1ccccc1)N=C[C@@H]1CC(CCOC(C)=O)=CN1C2=O`, the Cytotoxicity in the experiment with CH1 [1] was determined as 0.16 µM; with SK-OV-3, 0.46 µM; in the experiment on A2780 [7], 0.27 µM; with A2780 [8] it was 0.1 µM; in the experiment with CH1 [9], 0.105 µM. Besides, the ΔTm with Nucleic Acid [2] turned out to be 1.57 °C; with Nucleic Acid [5], 2.11 °C; with Nucleic Acid [10] it was 2.53 °C. Besides, the figures for the Resistance factor in [3] and in experiment [4] were 1.5 and 2.7, respectively.

As to `Cc1ccc2c(c1O)N=C[C@@H]1CC(/C=C/C(N)=O)=CN1C2=O`, the Cytotoxicity with CH1 [1] came to 0.05 µM; in the experiment with SK-OV-3 it was 0.16 µM; in the experiment on A2780 [7], 0.16 µM; in the experiment with A2780 [8], 0.155 µM; in the experiment on CH1 [9], 0.062 µM. Besides, the ΔTm in the experiment with Nucleic Acid [2] is 9.4 °C; in the experiment with Nucleic Acid [5], 11.2 °C; in the experiment with Nucleic Acid [10], 13 °C. Also, the Resistance factor was 0.81 in experiment [3] and 1.03 in [4].

As to `COc1cc2c(cc1OCc1ccccc1)N=C[C@@H]1CC(CC#N)=CN1C2=O`, the Cytotoxicity was found to be 0.27 µM with CH1 [1]; 0.52 µM in the experiment on SK-OV-3; 0.43 µM in the experiment with A2780 [7]; 0.155 µM in the experiment on A2780 [8]; 0.105 µM in the experiment on CH1 [9]. The ΔTm with Nucleic Acid [2] came to 1.84 °C; with Nucleic Acid [5] it was 2.31 °C; with Nucleic Acid [10], 4.31 °C. Moreover, the Resistance factor in experiment [3] is listed as 2.6; in [4], 2.8.
